Test results as given in article PMC9021288 (Nature Communications, 2022).

Assays:
[1] = Blood to plasma ratio, mouse
[2] = molecular target: T1, hNaV 1.5 (Homo sapiens, UniProt Q14524); assay: Manual patch clamp; type: cell-based; conditions: for Minimum current: single cells and Mean, mean
T1 construct: Metrion Biosciences
Experimental: (§1) Safety studies were performed by commercial services using their standard protocols. […] Genotoxicity was investigated using the Ames test (Bacterial Reverse Mutation Assay) (Covance Laboratories Ltd, North Yorkshire, England). In vitro mammalian cell micronucleus screening assay was studied in human peripheral blood lymphocytes (BioReliance Corporation, Rockville, USA). Cardiotoxicity was determined against the hERG channel in an automated patch clamp assay using the Qpatch or against the hNaV 1.5, hKV 1.5 and hCaV 1.2 using a manual patch-clamp technique (Metrion Biosciences, Cambridge, UK). Cytotoxicity in human and rat primary hepatocytes was assessed using the CellTiter-Blue assay performed by commercial services (KaLy-Cell). The viability of HepG2 cells was monitored through the addition of 1 mM resazurin. Following 6 h incubation, the relative amount of reduced resazurin was detected in a fluorimeter and compared to the assay controls (vehicle: 0.1% DMSO and positive control: 10 µM puromycin).

[3] = molecular target: T2, hCaV 1.2 (Homo sapiens, UniProt Q13936); assay: Manual patch clamp; type: cell-based; conditions: for Minimum current: single cells and Mean, mean
T2 construct: Metrion Biosciences
Experimental: as §1

[4] = molecular target: T3, hKV 1.5 (Homo sapiens, UniProt P22460); assay: Manual patch clamp; type: cell-based; conditions: for Charge / Peak current: single cells and Mean, mean
T3 construct: Metrion Biosciences
Experimental: as §1

[5] = system: rat primary hepatocytes; assay: Primary hepatocyte viability (CellTiter-Blue), rat; type: cell-based; conditions: for %Viability: Rat primary hepatocytes
Experimental: as §1

[6] = system: AcAS-cKD P. falciparum; assay: Drug sensitivity of AcAS conditional knockdown parasites; type: cell-based, Plasmodium falciparum; conditions: […] vs 500 nM aTc
Experimental: (§2) Replication assays were performed using a SYBR Green method as described previously. Briefly, asynchronous parasites were diluted to 0.83% parasitemia, 3% hematocrit in 30 µl medium, and added to 30 µl of diluted compounds in medium (0.1% DMSO final concentration) in black 384-wells plates. After a 72-h incubation, 30 µl of SYBR Green diluted in lysis buffer was added according to the manufacturer’s protocol (Life Technologies). Fluorescence intensity was measured on a BioTek Synergy 2 Plate Reader after 1-h incubation and was normalized to a DMSO control (100% growth) and DHA- or epoxomicin-treatment (no growth). […] Parasite survival was assessed by flow cytometry on an Accuri C6 (BD Biosciences) with BD C6 Plus software using SYBR Green and MitoTracker Deep Red FM (Life Technologies) as nuclear stain and vital dye, respectively, and data were analyzed using FlowJo (10.5.0). […] Luminescence was measured after 72 h using the Renilla-Glo(R) Luciferase Assay System (Promega E2750) and the GlomAX® Discover Multimode Microplate Reader (Promega). The luminescence values were normalized to DMSO vehicle (100% growth) and 200 nM chloroquine-treated (no growth) samples as controls.

[7] = system: control-cKD P. falciparum; assay: Drug sensitivity of control conditional knockdown parasites; type: cell-based, Plasmodium falciparum; conditions: 0 nM vs 500 nM aTc
Experimental: as §2

[8] = Solubility in PBS, FaSSIF, FeSSIF; type: physicochemical
[9] = system: P. falciparum NF54 male gametocytes; assay: Dual gamete formation assay, male; type: cell-based, Plasmodium falciparum
Experimental: After a 48-h incubation, gamete formation was stimulated by a drop in temperature (from 37 °C to 26 °C), and the addition of xanthurenic acid (2.5 µM). At 20 min after induction, exflagellation was recorded by automated time-lapse microscopy. After data collection, the plate was returned to a 26 °C incubator and incubated for 24 h. Female gamete formation was assessed by live staining with a Cy3-labelled anti-Pfs25 monoclonal antibody (1:2222) and recorded by automated microscopy.

[10] = Blood to plasma ratio, human

T2 sequence (Q13936 whole entry): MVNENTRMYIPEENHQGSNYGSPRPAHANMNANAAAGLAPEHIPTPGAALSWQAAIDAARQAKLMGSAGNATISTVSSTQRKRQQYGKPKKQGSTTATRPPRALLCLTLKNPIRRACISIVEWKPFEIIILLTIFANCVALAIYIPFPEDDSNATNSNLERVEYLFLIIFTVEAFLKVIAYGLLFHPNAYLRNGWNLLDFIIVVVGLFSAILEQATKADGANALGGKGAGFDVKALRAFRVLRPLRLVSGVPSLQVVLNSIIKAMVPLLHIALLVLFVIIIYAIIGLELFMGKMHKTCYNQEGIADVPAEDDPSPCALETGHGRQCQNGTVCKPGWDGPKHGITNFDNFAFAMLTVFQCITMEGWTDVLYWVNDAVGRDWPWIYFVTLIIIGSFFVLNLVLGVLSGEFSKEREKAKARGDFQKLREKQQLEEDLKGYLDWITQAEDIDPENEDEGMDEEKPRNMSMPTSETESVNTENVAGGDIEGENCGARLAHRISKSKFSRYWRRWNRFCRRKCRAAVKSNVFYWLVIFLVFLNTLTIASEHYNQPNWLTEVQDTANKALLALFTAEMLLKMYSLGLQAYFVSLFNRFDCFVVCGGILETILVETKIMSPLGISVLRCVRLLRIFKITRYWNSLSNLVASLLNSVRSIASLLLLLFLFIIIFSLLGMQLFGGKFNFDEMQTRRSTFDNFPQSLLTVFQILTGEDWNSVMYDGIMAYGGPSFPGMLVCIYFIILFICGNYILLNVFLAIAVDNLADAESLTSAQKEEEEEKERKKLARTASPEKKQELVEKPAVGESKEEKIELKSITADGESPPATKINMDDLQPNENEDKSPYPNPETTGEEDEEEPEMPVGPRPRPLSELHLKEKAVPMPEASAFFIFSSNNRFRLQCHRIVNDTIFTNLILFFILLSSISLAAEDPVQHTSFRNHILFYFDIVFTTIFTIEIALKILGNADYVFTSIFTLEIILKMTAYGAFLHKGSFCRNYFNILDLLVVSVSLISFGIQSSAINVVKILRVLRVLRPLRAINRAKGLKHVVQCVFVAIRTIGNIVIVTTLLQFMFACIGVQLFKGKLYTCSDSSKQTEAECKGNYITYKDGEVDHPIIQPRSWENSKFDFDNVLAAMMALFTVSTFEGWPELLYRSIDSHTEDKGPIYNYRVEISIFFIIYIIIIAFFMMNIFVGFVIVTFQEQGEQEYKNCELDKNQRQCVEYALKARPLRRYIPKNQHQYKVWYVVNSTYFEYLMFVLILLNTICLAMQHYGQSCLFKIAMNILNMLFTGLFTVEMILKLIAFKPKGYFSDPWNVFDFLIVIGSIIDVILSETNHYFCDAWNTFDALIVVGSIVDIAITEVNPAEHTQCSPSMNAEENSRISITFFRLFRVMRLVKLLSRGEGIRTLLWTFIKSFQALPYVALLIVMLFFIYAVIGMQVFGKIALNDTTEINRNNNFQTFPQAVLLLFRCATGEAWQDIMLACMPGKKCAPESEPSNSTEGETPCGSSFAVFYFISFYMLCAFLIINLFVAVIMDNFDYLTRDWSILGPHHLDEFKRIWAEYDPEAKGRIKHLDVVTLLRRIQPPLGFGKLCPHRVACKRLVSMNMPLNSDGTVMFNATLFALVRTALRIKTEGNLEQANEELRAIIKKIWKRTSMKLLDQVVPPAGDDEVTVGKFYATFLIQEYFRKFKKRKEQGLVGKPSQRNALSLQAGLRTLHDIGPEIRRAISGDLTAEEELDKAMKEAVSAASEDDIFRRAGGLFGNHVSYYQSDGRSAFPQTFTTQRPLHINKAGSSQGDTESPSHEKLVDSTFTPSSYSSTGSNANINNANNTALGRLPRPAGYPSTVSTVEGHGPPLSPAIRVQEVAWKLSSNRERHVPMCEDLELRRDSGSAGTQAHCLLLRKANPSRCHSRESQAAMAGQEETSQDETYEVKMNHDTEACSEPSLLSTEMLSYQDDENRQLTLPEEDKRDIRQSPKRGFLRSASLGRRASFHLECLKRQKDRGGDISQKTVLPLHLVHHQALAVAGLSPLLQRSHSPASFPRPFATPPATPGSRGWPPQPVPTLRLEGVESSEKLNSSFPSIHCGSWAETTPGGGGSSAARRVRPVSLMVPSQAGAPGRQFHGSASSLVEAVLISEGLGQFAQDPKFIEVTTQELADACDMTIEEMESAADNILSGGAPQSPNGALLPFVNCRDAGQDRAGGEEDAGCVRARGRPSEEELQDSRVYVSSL
T2 sequence (Q08289 whole entry partner): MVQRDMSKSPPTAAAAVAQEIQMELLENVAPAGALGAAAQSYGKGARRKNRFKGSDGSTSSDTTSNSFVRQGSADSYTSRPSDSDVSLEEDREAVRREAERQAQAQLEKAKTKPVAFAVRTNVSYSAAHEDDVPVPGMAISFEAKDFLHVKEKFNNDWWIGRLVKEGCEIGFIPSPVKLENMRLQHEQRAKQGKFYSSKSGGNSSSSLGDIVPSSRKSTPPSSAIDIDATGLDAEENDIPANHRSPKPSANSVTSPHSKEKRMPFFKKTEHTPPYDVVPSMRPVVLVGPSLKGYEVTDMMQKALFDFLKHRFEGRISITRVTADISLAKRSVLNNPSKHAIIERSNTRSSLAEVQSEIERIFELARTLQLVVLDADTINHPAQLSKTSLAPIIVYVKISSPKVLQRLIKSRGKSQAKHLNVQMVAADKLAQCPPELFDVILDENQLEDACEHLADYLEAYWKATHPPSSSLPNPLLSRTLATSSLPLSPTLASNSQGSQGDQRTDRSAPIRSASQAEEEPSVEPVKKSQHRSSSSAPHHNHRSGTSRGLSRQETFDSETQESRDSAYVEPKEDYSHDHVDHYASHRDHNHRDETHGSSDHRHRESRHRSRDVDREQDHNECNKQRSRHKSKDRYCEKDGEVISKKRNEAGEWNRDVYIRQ
T2 sequence (P54289 25-946 partner limits assumed): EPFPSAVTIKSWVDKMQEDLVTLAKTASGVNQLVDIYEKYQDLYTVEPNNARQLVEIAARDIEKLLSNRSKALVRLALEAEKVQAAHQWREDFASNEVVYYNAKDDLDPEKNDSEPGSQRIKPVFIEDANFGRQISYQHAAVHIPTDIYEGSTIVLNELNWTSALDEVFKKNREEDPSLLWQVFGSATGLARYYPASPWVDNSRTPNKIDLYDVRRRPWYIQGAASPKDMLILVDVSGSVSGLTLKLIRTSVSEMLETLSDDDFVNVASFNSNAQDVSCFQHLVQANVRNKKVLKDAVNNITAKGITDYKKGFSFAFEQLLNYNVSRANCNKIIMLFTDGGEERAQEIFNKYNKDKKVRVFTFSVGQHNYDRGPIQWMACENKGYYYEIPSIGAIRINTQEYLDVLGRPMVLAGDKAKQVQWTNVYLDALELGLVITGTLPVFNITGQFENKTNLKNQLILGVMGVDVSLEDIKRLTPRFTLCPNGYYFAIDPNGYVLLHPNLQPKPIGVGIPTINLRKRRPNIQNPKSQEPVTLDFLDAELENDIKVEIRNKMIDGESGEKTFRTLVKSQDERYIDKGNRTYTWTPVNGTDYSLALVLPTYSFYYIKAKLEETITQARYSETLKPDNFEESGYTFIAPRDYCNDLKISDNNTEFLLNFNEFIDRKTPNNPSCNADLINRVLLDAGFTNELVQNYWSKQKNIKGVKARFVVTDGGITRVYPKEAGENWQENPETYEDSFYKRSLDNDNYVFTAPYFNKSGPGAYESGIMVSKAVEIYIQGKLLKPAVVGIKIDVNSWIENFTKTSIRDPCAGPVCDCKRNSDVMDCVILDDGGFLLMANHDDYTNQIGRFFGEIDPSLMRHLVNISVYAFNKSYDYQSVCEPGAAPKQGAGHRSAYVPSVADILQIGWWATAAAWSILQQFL
T2 sequence (P54289 947-1103 partner limits assumed): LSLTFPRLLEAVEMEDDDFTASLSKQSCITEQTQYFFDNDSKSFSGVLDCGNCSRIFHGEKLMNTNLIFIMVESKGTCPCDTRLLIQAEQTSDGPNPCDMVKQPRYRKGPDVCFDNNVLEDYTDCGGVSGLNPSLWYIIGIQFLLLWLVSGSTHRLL
T3 sequence (P22460 whole entry): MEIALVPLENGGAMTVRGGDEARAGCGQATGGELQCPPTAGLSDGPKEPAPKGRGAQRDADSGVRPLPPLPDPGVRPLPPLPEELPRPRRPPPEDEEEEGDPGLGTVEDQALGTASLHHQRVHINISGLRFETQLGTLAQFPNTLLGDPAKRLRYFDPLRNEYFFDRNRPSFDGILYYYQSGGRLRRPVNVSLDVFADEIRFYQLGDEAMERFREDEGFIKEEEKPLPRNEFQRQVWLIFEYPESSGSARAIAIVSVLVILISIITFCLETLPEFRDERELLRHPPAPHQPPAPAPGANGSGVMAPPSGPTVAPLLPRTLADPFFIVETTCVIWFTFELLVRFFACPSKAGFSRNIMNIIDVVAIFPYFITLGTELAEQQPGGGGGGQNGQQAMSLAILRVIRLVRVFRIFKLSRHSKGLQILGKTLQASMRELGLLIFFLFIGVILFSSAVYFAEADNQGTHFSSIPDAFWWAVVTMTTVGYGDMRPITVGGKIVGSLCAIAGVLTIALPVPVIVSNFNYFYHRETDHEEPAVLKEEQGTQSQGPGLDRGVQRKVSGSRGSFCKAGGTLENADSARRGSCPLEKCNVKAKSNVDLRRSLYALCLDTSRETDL

C[C@@H](CNC(=O)[C@H](O)C(C)(C)CO)NC(=O)c1cc(F)c(F)cc1F [MMV693183]
B:P [1]: 0.98
Inhibition ([2]; 10 µM): 1.56%
IC50 ([2]; hNav 1.5): > 10 µM
Minimum current ([2]; hNav1.5, 300nM, P1): 1.33%
Minimum current ([2]; hNav1.5, 300nM, P10): 2.55%
Minimum current ([2]; hNav1.5, 1uM, P10): 0.96%
Minimum current ([2]; hNav1.5, 3uM, P1): -2.90%
Minimum current ([2]; hNav1.5, 3uM, P10): 2.43%
Minimum current ([2]; hNav1.5, 10uM, P1): -1.24%
Minimum current ([2]; hNav1.5, 10uM, P10): 1.56%
Inhibition ([3]; 10 µM): 24.20%
Minimum current ([3]; Cav1.2, 0.3uM): 4.49%
Minimum current ([3]; Cav1.2, 1uM): 7.60%
Minimum current ([3]; Cav1.2, 10uM): 24.20%
IC50 ([3]; hCaV 1.2): > 10 µM
Inhibition ([4]; 10 µM): 2.15%
IC50 ([4]; hKV 1.5): > 10 µM
Charge ([4]; hKv1.5, 300nM): 4.53%
Peak current ([4]; hKv1.5, 300nM): 0.19%
Peak current ([4]; hKv1.5, 1uM): 1.06%
Charge ([4]; hKv1.5, 3uM): 8.60%
Peak current ([4]; hKv1.5, 3uM): 0.58%
Peak current ([4]; hKv1.5, 10uM): 2.15%
%Viability ([5]; Batch R14I19, 0.1 µM): 103%
%Viability ([5]; Batch R14I19, 0.5 µM): 105%
%Viability ([5]; Batch R14I19, 1 µM): 101%
%Viability ([5]; Batch R14I19, 5 µM): 101%
%Viability ([5]; Batch R14I19, 10 µM): 101%
%Viability ([5]; Batch R17G25, 0.1 µM): 111%
%Viability ([5]; Batch R17G25, 0.5 µM): 109%
%Viability ([5]; Batch R17G25, 1 µM): 111%
%Viability ([5]; Batch R17G25, 5 µM): 106%
%Viability ([5]; Batch R17G25, 10 µM): 106%
IC50 ([5]; primary rat hepatocytes): > 10 µM
IC50 decrease upon knockdown (low aTc) [6]: 5 fold
IC50 change upon knockdown [7]: no difference in sensitivity
solubility ([8]; FaSSIF): 25.5 µM
solubility ([8]; FeSSIF): 25.0 µM
solubility ([8]; PBS): 7.1 mg/mL
solubility ([8]; fasted-state simulated intestinal fluid): 9.2 mg/mL
solubility ([8]; fed-state simulated intestinal fluid): 9.1 mg/mL
IC50 [9]: 1000 nM
B:P [10]: 0.97
